The text below walks through data of ChEMBL document CHEMBL1124496, “Darmstoff analogues. 3. Actions of choline esters of acetal phosphatidic acids on visceral smooth muscle” (1989).

For the test, the species on record is Cavia porcellus. In words: Effective dose for relaxation of guinea pig taenia coli strips. Type of test: functional.
`CCCCC/C=C/C/C=C/CCCCCCCC1OCC(COP(=O)([O-])OCC[N+](C)(C)C)O1` (stereo not drawn) gave an ED60 of 50 µM.
Molecule `CCCCCCCCCCCCCCCC1OCC(COP(=O)([O-])OCC[N+](C)(C)C)O1` (stereo not drawn) gave an ED60 of 57 µM.
`CCCCCCCC/C=C/CCCCCCCC1OCC(COP(=O)([O-])OCC[N+](C)(C)C)O1` (cis isomer) returned an ED60 of 200 µM.
